Literature values in patent US20230390178A1, “Skin Care Compositions and Methods of Use” (Colgate-Palmolive Company, priority 2022, published 2023).

Log P: −2.5
Structure (SMILES): O=C1O[C@H]([C@@H](O)CO)C(O)=C1O[C@H]1O[C@H](CO)[C@@H](O)[C@H](O)[C@H]1O [ascorbyl glucoside]
